Data set [1] addresses T1, COX-2 (human) (Homo sapiens, UniProt P35354).
T1 construct: purchased Cayman (Ann Arbor, MI) 701080
T1 sequence (P35354 18-604): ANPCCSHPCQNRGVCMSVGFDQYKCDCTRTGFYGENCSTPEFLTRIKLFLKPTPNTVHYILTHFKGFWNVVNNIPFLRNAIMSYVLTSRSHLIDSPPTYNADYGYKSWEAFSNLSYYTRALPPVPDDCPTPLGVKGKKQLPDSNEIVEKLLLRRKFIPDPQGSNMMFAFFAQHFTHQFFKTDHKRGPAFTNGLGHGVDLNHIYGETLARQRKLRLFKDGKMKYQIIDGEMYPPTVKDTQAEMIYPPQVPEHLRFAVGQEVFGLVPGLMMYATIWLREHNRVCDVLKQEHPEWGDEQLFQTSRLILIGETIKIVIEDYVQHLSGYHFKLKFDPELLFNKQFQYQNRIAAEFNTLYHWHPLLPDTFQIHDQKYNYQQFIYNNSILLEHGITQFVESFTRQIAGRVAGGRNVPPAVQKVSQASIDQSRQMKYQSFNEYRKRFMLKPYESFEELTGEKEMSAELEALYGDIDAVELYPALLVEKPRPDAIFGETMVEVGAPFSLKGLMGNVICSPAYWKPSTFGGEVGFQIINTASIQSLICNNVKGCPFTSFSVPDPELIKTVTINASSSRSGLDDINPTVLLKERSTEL
The data set can be described thus: COX-2 (human) Inhibitor Screening Assay Kit (Cayman). The data set is classed as biochemical. Conditions: for selectivity index COX-2/COX-1: towards COX-2 than COX-1. The text has this:
(§1) The used protocol was according to the manufacturer protocol guide and instructions using ELISA plate reader.

The target in data set [2] is T2, 5-LOX (Homo sapiens, UniProt P09917).
T2 sequence (P09917 1-674): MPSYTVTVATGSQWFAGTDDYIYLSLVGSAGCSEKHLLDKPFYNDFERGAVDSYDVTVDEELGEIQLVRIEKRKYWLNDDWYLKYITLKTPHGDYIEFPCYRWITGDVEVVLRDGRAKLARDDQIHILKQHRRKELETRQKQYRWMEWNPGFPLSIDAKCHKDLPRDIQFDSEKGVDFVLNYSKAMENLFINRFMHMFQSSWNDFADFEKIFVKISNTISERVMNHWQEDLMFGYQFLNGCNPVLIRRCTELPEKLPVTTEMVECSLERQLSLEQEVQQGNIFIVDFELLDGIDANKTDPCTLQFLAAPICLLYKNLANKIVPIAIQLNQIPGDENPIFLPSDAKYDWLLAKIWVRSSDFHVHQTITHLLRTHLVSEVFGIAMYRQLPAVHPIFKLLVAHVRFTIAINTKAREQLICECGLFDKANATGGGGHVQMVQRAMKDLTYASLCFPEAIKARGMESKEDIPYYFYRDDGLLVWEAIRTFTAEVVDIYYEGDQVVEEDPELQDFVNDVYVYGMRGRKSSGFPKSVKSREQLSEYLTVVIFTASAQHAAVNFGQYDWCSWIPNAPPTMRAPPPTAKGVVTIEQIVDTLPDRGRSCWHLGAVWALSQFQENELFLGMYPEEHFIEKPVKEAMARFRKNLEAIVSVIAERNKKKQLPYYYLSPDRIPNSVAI
Description: 5-LOX Inhibitor Screening Assay Kit (Cayman). To be noted: for 5-LOX IC50 level: in words. The data set is classed as biochemical.
Excerpt: as §1

Data set [3] has as its target T3, COX-1 (human) (Homo sapiens, UniProt P23219).
T3 construct: purchased Cayman (Ann Arbor, MI) 701070
The data set can be described thus: COX-1 (human) Inhibitor Screening Assay Kit (Cayman). The data set is classed as biochemical.
Excerpt: as §1

In data set [4] the test system is carrageenan-induced rat paw oedema. Description: carrageenan-induced rat paw oedema assay. The data set is classed as in vivo, Sprague–Dawley rats. Conditions: for Inhibition of acute inflammation % inh / Swel (mean difference in rat paw volume between right and left paw): dose equivalent to 70 mg kg-1 ibuprofen; for Swel (mean difference in rat paw volume between right and left paw): DMSO; for inflammation reduction % (4h): rat paw oedema, 4 h time interval, subcutaneous, equimolar to ibuprofen 70 mg kg-1. Here is the method: According to a priori test results, experiments were conducted on young adult male Sprague–Dawley rats (5 rats per group), weighing 140–170 g. The animals were housed at cages in a temperature controlled (25 ± 1 °C) environment and were fed ad libitum with standard laboratory chow and allowed free access to water. […] The animal protocol is in accordance with the Animal Ethical Care regulations in the Faculty of Pharmacy, Helwan University.
Compounds (equimolar to the reference drug) were dissolved in DMSO and administrated subcutaneously. One hour later, paw oedema was induced by subplantar injection of 0.1 ml of 1% carrageenan (Sigma-Aldrich, St. Louis, MO) into the right hind paw. Paw volume was measured using a water plethysmometer (Basile, Comerio, Italy). The difference between the right and left paw volume was measured at 1, 2, 3, and 4 h after induction of inflammation.
The control group (five rats per group) received DMSO subcutaneously and carrageenan in the subplantar region. Results were expressed as percentage inhibition of inflammation.
For orientation: The carrageenan paw model is a standard test of acute inflammation.

For orientation: IC50 means the concentration at which inhibition is half-maximal. Read a high IC50 as a need for much substance. A word on the melting point: it is the temperature of the solid-liquid transition.

The structures appear in SMILES notation. Values joined by “and” are separate entries in the source; they are usually repeats but may differ in a detail not shown here. Identical values can stand only once.

T3 sequence (P23219 24-599): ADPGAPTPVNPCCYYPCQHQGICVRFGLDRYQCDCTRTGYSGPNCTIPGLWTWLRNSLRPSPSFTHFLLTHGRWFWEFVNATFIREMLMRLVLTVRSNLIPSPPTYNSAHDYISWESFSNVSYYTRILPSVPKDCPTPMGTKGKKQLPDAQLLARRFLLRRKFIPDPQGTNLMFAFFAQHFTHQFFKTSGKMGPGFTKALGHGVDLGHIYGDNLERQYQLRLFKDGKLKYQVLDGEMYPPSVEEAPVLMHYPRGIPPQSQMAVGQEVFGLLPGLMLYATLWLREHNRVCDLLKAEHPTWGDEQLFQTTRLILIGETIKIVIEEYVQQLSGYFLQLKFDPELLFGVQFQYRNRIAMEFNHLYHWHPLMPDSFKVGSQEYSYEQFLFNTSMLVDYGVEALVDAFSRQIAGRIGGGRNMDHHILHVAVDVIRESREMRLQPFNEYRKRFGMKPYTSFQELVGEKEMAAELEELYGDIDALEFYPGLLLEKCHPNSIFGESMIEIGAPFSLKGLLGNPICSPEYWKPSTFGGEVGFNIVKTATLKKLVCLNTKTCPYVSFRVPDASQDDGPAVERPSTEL

As for `Cc1cc(C)c2c(N)c(C(=O)NN=Cc3ccccc3)sc2n1` [Compound 7a, 3-Amino-4,6-dimethyl-thieno [2,3-b] pyridine-2-carboxylic acid benzylidene-hyrazide], the results for the 50% inhibitory concentration (IC50) in data set [1] and in data set [3] were 9.99 µM and 45.9 µM, respectively. The “COX-2 inhibition, times higher than 8a” value in data set [1] (compared with 8a) worked out at 3.6 times. Moreover, in data set [1] (compared with 8c), the “COX-2 inhibition, times higher than 8c” value amounted to 1.8 times. In addition, in data set [1], the “selectivity index COX-2/COX-1” value amounted to 4.6. The “5-LOX inhibition, times higher than 8a” value in data set [2] (compared with 8a) is 35 times. Also, the “5-LOX inhibition, times higher than 8c” value in data set [2] (compared with 8c) was determined as 87 times. Moreover, in data set [2], the “5-LOX IC50 level” value was “nanomolar level”. For the same molecule, the “Inhibition of acute inflammation % inh” value is recorded as 37.68% in data set [4] (1 h), 42.3% in data set [4] (2 h), 71.2% in data set [4] (3 h) and 73.54% in data set [4] (4 h). Also, the “Swel (mean difference in rat paw volume between right and left paw)” value stood at 0.143 in data set [4] (1 h after carrageenan), 0.15 in data set [4] (2 h after carrageenan), 0.156 in data set [4] (3 h after carrageenan) and 0.16 in data set [4] (4 h after carrageenan). In data set [4], the “inflammation reduction % (4h)” value is 73.5% and 73.54%.

Regarding `Cc1cc(C)c2c(N)c(C(=O)N/N=C/c3ccc(Cl)cc3)sc2n1` [Compound 7b, 3-Amino-4,6-dimethyl-thieno [2,3-b] pyridine-2-carboxylic acid (4-chloro-benzylidene)-hyrazide], the melting point lay within 280 to 282 °C. For the same molecule, in data set [1], the IC50 is 7.5 µM and 7.52 µM; the “selectivity index COX-2/COX-1” value is 4.2. Besides, the “5-LOX IC50 level” value in data set [2] is given as “nanomolar level”. Further, the IC50 in data set [3] worked out at 31.8 µM. The “Inhibition of acute inflammation % inh” value in data set [4] (1 h) was 22.1%. Besides, the “Swel (mean difference in rat paw volume between right and left paw)” value in data set [4] (1 h after carrageenan) is recorded as 0.17. Besides, in data set [4] (2 h), the “Inhibition of acute inflammation % inh” value was 35.62%. Also, the “Swel (mean difference in rat paw volume between right and left paw)” value in data set [4] (2 h after carrageenan) is 0.16. Further, the “Inhibition of acute inflammation % inh” value in data set [4] (3 h) was determined as 54.75%. For the same molecule, the “Swel (mean difference in rat paw volume between right and left paw)” value in data set [4] (3 h after carrageenan) is 0.25. Further, the “Inhibition of acute inflammation % inh” value in data set [4] (4 h) is on record as 73.02%. For the same molecule, the “Swel (mean difference in rat paw volume between right and left paw)” value in data set [4] (4 h after carrageenan) stood at 0.17. In addition, the “inflammation reduction % (4h)” value in data set [4] came to 73.02%.

`Cc1cc(C)c2c(n1)sc1c(=O)n(/N=C/c3ccc(Cl)cc3)nnc12` [Compound 8b, 7,9-Dimethyl-3-[(4-chloro-phenyl-methylene)amino]pyrido[3ˈ,2ˈ:4,5] thieno [3,2-d][1,2,3]triazin-4(3H)-one] showed a melting point of 255 to 257 °C. In data set [1], this molecule showed an IC50 of 36 µM. Further, the “5-LOX inhibition, times less potent than 7a” value in data set [2] (compared with 7a) was “approximately 90 times”. The “5-LOX IC50 level” value in data set [2] is reported as “micromolar level”. Also, in data set [3], the midpoint of inhibition, the IC50, lay at 19.9 µM and the “affinity towards COX-1 over COX-2” value is “approximately 2 fold”. In addition, the “Inhibition of acute inflammation % inh” value in data set [4] (1 h) is reported as 0%. Besides, the “Swel (mean difference in rat paw volume between right and left paw)” value in data set [4] (1 h after carrageenan) is on record as 0.23. In addition, the “Inhibition of acute inflammation % inh” value in data set [4] (2 h) stood at 0%. Further, the “Swel (mean difference in rat paw volume between right and left paw)” value in data set [4] (2 h after carrageenan) is on record as 0.27. Besides, the “Inhibition of acute inflammation % inh” value in data set [4] (3 h) worked out at 56.54%. Besides, the “Swel (mean difference in rat paw volume between right and left paw)” value in data set [4] (3 h after carrageenan) was determined as 0.24. In addition, in data set [4] (4 h), the “Inhibition of acute inflammation % inh” value worked out at 78.23%. The “Swel (mean difference in rat paw volume between right and left paw)” value in data set [4] (4 h after carrageenan) is listed as 0.14. Moreover, in data set [4], the “inflammation reduction % (4h)” value is 78.2% and 78.23%.

The values above are taken from paper PMC6009894, “Molecular modelling insights into a physiologically favourable approach to eicosanoid biosynthesis inhibition through novel thieno[2,3-b]pyridine derivatives” (Journal of Enzyme Inhibition and Medicinal Chemistry, 2018).
